In ChEMBL document CHEMBL1134184, “Synthesis of sialyl Lewis(x) mimics. Modifications of the 6-position of galactose” (Bioorg Med Chem Lett, 2001):

target: T1, E-selectin (Homo sapiens, UniProt P16581); experiment: Inhibitory concentration of compound to block the binding of sLE Xto E-selectin
T1 sequence (P16581 whole entry): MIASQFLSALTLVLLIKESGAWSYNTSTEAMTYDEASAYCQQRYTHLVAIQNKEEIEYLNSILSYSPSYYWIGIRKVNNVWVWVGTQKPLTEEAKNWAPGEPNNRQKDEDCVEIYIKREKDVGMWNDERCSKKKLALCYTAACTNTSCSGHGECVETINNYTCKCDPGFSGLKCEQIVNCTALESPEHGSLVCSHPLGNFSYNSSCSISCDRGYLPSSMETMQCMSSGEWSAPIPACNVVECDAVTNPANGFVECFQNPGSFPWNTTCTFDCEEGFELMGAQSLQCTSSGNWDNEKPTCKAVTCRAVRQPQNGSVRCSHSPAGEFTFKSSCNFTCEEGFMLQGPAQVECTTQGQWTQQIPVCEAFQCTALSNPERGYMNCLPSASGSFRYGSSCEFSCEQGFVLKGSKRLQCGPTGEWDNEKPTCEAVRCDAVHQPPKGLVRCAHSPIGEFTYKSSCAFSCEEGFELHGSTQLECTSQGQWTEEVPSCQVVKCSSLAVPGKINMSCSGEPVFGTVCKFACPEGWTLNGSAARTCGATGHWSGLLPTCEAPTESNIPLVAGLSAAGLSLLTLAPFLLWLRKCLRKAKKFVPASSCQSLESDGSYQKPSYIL

Row | IC50 | SMILES
1 | > 10 mM | CC1OC(OC2CCCCC2OC2OC(C(N)=O)C(O)C(O[C@@H](CC3CCCCC3)C(=O)O)C2O)C(O)C(O)C1O (stereo not given in full)
2 | > 10 mM | CC1OC(OC2CCCCC2OC2OC(CN)C(O)C(O[C@@H](Cc3ccccc3)C(=O)O)C2O)C(O)C(O)C1O (stereo not given in full)
3 | 1 mM | COC(=O)CCCCCCCCO[C@@H]1OC(CO)[C@@H](O[C@@H]2O[C@@H](CO)[C@H](O)[C@H](O[C@]3(C(=O)O)C[C@@H](O)[C@@H](NC(C)=O)[C@@H](C(O)C(O)CO)O3)[C@@H]2O)[C@@H](O[C@@H]2O[C@H](C)[C@@H](O)[C@H](O)C2O)[C@@H]1NC(C)=O (stereo not given in full)
4 | 0.35 mM | C[C@@H]1O[C@@H](O[C@@H]2CCCC[C@H]2O[C@@H]2O[C@@H](CO)[C@H](O)[C@H](O[C@@H](Cc3ccccc3)C(=O)O)[C@@H]2O)[C@@H](O)[C@@H](O)[C@@H]1O
5 | > 10 mM | C[C@@H]1O[C@@H](O[C@@H]2CCCC[C@H]2O[C@@H]2O[C@@H](C(=O)O)[C@H](O)[C@H](O[C@@H](CC3CCCCC3)C(=O)O)[C@@H]2O)[C@@H](O)[C@@H](O)[C@@H]1O
6 | > 10 mM | C[C@@H]1O[C@@H](O[C@@H]2CCCC[C@H]2O[C@@H]2O[C@@H](C(=O)O)[C@H](O)[C@H](O[C@@H](Cc3ccccc3)C(=O)O)[C@@H]2O)[C@@H](O)[C@@H](O)[C@@H]1O
7 | > 10 mM | C[C@@H]1O[C@@H](O[C@@H]2CCCC[C@H]2O[C@@H]2O[C@@H](COS(=O)(=O)O)[C@H](O)[C@H](O[C@@H](Cc3ccccc3)C(=O)O)[C@@H]2O)[C@@H](O)[C@@H](O)[C@@H]1O
8 | 0.08 mM | C[C@@H]1O[C@@H](O[C@@H]2CCCC[C@H]2O[C@@H]2O[C@@H](CO)[C@H](O)[C@H](O[C@@H](CC3CCCCC3)C(=O)O)[C@@H]2O)[C@@H](O)[C@@H](O)[C@@H]1O
9 | > 10 mM | CC(=O)NCC1OC(OC2CCCCC2OC2OC(C)C(O)C(O)C2O)C(O)C(OC(Cc2ccccc2)C(=O)O)C1O (stereo not given)
10 | > 10 mM | CC1OC(OC2CCCCC2OC2OC(CNC(=O)c3ccccc3)C(O)C(OC(Cc3ccccc3)C(=O)O)C2O)C(O)C(O)C1O (stereo not given)
